pIC50: −log10 of the molar value. Where a name gives a salt, the structure may show the parent alone. Read-outs that look alike come from different tables or passages of the source.
What was measured:
[1] = target: T1, c-erbB-2 (baculovirus expressed, recombinant intracellular domain) (Homo sapiens, UniProt P04626); test: Substrate phosphorylation assay, c-erbB-2; type: biochemical
T1 construct: baculovirus expressed, recombinant constructs of the intracellular domains of c-erbB-2 and c-erbB-4; made in house
T1 sequence (P04626 676-1255 limits assumed): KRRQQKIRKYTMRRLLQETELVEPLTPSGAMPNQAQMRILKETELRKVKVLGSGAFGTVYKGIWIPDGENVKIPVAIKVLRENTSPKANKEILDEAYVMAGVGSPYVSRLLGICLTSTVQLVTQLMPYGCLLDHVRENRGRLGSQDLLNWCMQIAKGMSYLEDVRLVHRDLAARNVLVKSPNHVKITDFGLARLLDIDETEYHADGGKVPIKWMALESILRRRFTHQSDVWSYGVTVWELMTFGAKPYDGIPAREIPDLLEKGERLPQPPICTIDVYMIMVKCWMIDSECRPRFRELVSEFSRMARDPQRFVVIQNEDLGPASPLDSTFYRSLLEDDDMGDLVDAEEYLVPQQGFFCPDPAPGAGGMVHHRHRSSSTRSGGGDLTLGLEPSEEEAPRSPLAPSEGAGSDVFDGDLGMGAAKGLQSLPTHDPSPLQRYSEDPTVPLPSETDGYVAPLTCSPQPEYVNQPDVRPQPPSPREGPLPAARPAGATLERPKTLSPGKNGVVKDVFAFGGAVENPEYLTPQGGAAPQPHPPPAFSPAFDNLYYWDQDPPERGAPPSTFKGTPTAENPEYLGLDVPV
Method: (§1) The substrate phosphorylation assays use baculovirus expressed, recombinant constructs of the intracellular domains of c-erbB-2 and c-erbB-4 that are constitutively active and EGFr isolated from solubilised A431 cell membranes. The method measures the ability of the isolated enzymes to catalyse the transfer of the γ-phosphate from ATP onto tyrosine residues in a biotinylated synthetic peptide (Biotin-[…]. […] The reaction is stopped by the addition of EDTA (final concentration 0.15 mM) and a sample is transferred to a streptavidin-coated 96-well plate. The plate is washed and level of phosphotyrosine on the peptide is determined using a Europium-labelled antiphosphotyrosine antibody and quantified with a time-resolved fluorescence technique.

[2] = target: T2, c-erbB-4 (baculovirus expressed, recombinant intracellular domain) (Homo sapiens, UniProt Q15303); test: Substrate phosphorylation assay, c-erbB-4; type: biochemical
T2 construct: baculovirus expressed, recombinant constructs of the intracellular domains of c-erbB-2 and c-erbB-4; made in house
T2 sequence (Q15303 676-1308 limits assumed): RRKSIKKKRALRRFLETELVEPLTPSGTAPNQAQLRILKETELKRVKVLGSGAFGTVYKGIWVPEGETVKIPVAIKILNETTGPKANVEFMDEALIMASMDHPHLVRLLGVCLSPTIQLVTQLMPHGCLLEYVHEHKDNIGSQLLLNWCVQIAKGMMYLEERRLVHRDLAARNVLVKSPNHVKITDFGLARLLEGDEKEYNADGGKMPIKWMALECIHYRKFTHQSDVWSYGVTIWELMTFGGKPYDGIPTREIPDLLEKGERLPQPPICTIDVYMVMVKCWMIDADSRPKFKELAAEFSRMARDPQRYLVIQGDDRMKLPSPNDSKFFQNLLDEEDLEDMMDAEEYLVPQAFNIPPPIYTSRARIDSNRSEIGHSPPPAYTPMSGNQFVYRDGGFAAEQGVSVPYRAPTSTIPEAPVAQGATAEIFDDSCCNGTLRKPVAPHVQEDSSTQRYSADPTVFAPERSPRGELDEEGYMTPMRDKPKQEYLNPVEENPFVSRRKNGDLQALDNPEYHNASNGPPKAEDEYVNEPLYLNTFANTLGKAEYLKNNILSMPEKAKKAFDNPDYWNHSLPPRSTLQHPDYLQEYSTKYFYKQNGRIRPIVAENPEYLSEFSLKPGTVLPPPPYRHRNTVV
Method: as §1

[3] = target: HB4a cell line transformed by over-expression of c-erbB-2 (Homo sapiens, UniProt P04626); test: Cell proliferation assay, HB4a erbB-2; type: cell-based
HB4a cell line transformed by over-expression of c-erbB-2, sequence (P04626 whole entry, stated change not applied): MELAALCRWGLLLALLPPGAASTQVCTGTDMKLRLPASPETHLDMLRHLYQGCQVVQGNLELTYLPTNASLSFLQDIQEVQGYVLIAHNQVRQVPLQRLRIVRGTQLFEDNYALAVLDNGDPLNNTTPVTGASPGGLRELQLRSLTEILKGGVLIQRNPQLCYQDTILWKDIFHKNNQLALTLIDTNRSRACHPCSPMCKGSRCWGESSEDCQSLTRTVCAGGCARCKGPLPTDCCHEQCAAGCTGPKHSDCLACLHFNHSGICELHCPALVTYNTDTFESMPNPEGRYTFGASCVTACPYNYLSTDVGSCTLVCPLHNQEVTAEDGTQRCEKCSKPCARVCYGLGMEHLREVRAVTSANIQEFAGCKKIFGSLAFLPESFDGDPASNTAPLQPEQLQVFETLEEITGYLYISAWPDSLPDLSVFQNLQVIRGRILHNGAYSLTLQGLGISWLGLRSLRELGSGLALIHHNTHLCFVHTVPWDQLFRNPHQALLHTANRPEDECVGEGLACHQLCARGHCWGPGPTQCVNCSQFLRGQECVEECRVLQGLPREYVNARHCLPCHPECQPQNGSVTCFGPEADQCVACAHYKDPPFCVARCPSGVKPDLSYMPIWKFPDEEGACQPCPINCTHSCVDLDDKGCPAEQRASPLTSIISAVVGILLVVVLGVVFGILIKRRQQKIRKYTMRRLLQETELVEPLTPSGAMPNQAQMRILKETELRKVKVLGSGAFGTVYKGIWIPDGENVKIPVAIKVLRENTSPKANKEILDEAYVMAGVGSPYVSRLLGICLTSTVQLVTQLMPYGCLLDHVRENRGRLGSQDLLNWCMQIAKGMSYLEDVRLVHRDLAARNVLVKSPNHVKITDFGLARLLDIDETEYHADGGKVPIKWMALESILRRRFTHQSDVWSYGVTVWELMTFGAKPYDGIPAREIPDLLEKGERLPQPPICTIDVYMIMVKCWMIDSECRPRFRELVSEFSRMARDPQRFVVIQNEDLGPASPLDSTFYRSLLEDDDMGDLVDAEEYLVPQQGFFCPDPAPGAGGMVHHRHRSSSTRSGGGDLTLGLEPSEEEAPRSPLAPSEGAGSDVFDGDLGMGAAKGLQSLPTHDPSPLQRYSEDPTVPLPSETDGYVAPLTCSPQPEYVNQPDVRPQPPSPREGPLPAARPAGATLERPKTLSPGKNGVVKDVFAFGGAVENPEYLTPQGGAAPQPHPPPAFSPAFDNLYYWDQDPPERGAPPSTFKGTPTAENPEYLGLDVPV
Method: The cell proliferation assay uses an immortalised human breast epithelial cell line (HB4a) which has been transformed by over-expression of c-erbB-2. Growth of these cells in low serum is dependent upon the c-erbB-2 tyrosine kinase activity. […] Cells are plated at 3000/ well in 96-well plates in 0.1 ml medium and allowed to attach overnight. test compound is added in 0.1 ml medium, with a final concentration of 0.5% DMSO, and the plates incubated for 4 days at 37° C. The cells are then examined microscopically for evidence of morphological detransformation and cell mass is estimated by staining with methylene blue and measuring the absorbance at 620 nm. […] Activity against a range of naturally occurring EGFr or c-erbB-2 over-expressing human tumour cell lines (BT474-breast, HN5-head and neck, N87-gastric and Calu3-lung) is assessed with selected compounds by the same methodology.

[4] = test system: HB4a cell line transfected with ras; test: Cell proliferation assay, HB4a ras; type: cell-based, human; details: Homo sapiens, HB4a, 96 h, read-out: Cell Proliferation HB4a ras
[5] = read-out: Substrate Phosphorylation erbB-2
[6] = 4 days at 37° C., methylene blue staining; read-out: Cell Proliferation HB4a erbB-2
[7] = 4 days at 37° C., methylene blue staining, general toxicity control

| pIC50 [1, 5] | pIC50 [2] | GI50 [3, 6] [nM] | GI50 ([3]; read-out: Cell Proliferation HB4a erbB-2; 4 days at 37° C., methylene blue staining) [nM] | pIC50 [1] | SMILES | pIC50 [4, 7] | pIC50 [4] |
| --- | --- | --- | --- | --- | --- | --- | --- |
| 7.40 | 5.60 | – | – | – | c1ccc(COc2ccc(Nc3ncnc4ccc(-c5ccco5)cc34)cc2)cc1 [Example 1, (4-Benzyloxy-phenyl)-(6-furan-2-yl-quinazolin-4-yl)-amine] | – | – |
| 7.54 | 5.07 | 23000 | – | – | c1ccc(COc2ccc(Nc3ncnc4ccc(-c5ccccn5)cc34)cc2)cc1 [Example 3, (4-Benzyloxy-phenyl)-(6-(pyridin-2-yl)-quinazolin-4-yl)-amine] | 4.80 | – |
| 7.46 | 5.19 | – | – | – | c1ccc(COc2ccc(Nc3ncnc4ccc(-c5ncccn5)cc34)cc2)cc1 [Example 4, (4-Benzyloxy-phenyl)-(6-(pyrimidin-2-yl)-quinazolin-4-yl)-amine] | 4.30 | – |
| 6.82 | < 5.00 | – | – | – | Cn1nncc1-c1ccc2ncnc(Nc3ccc(OCc4ccccc4)cc3)c2c1 [Example 8, (4-Benzyloxy-phenyl)-(6-(3-methyl-1,2,3-triazol-4-yl)-quinazolin-4-yl)-amine] | – | – |
| 7.62 | 6.37 | 550 | – | – | O=Cc1ccc(-c2ccc3ncnc(Nc4ccc(OCc5ccccc5)cc4)c3c2)o1 [Example 9, 5-(4-(4-Benzyloxy-phenylamino)-quinazolin-6-yl)-furan-2-carbaldehyde] | 5.24 | – |
| 8.52 | 6.01 | > 50000 | – | – | c1ccc(COc2ccc(Nc3ncnc4ccc(-c5nnn[nH]5)cc34)cc2)cc1 [Example 40, (4-Benzyloxy-phenyl)-(6-(1H-tetrazol-5-yl)-quinazolin-4-yl)-amine] | < 4.30 | – |
| 8.15 | – | 570 | – | – | Cc1nnc(-c2ccc3ncnc(Nc4ccc5c(cnn5Cc5ccccc5)c4)c3c2)[nH]1 [Example 42, (1-Benzyl-1H-indazol-5-yl)-(6-(5-methyl-1,3,4-triazol-2-yl)-quinazolin-4-yl)-amine] | 4.70 | – |
| 6.31 | 5.30 | – | – | – | Cc1cc(-c2ccc3ncnc(Nc4ccc(OCc5ccccc5)cc4)c3c2)on1 [Example 47, (4-Benzyloxy-phenyl)-(-6-(3-methylisoxazol-5-yl)-quinazolin-4-yl)-amine hydrochloride] | – | – |
| 7.42 | 5.96 | 80 | – | – | CN(CCS(C)(=O)=O)Cc1ccc(-c2ccc3ncnc(Nc4ccc(OCc5ccccc5)cc4)c3c2)o1 [Example 48, (4-Benzyloxy-phenyl)-(6-(5-(((2-methanesulphonyl-ethyl)-methyl-amino)-methyl)-furan-2-yl)-quinazolin-4-yl)-amine] | 5.02 | – |
| – | – | – | 470 | 7.48 | CS(=O)(=O)NCCNCc1ccc(-c2ccc3ncnc(Nc4ccc(OCc5ccccc5)cc4)c3c2)o1 [Example 49, N-(2-((5-(4-(4-Benzyloxy-phenylamino)-quinazolin-6-yl)-furan-2-ylmethyl)-amino) -ethyl)-methanesulphonamide dihydrochloride] | – | 5.46 |
| 7.92 | 7.00 | 860 | – | – | NS(=O)(=O)CCNCc1ccc(-c2ccc3ncnc(Nc4ccc(OCc5ccccc5)cc4)c3c2)o1 [Example 50, 2-((5-(4-(4-Benzyloxy-phenylamino)-quinazolin-6-yl)-furan-2-ylmethyl)-amino)-ethanesulphonic acid amide] | 5.15 | – |
| 7.08 | – | 1200 | – | – | CN(C)CCc1nc(-c2ccc3ncnc(Nc4ccc(OCc5ccccc5)cc4)c3c2)no1 [Example 57, (4-Benzyloxy-phenyl)-(6-(5-(2-dimethylamino-ethyl)-1,2,4-oxadiazol-3-yl)-quinazolin-4-yl)-amine] | 5.57 | – |
| 8.22 | – | 8600 | – | – | CN(C)Cc1nc(-c2ccc3ncnc(Nc4ccc(OCc5ccccc5)cc4)c3c2)no1 [Example 58, (4-Benzyloxy-phenyl)-(6-(5-(dimethylaminomethyl)-1,2,4-oxadiazol-3-yl)-quinazolin-4-yl)-amine] | 4.55 | – |

From US6828320B2, “Heterocyclic compounds” (SmithKline Beecham Corporation, priority 1996, dated 2004)
